From PubChem BioAssay (NCI)
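Assay format: 96-well plates, 48-hour exposure. TGI denotes the concentration required for complete inhibition of growth.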

How the values were obtained:
Assay in all cases: NCI tumour cell line growth inhibition, 48 h
K-562 leukemia = test system: K-562 leukemia
NCI-H226 lung = test system: NCI-H226 lung
U251 CNS = test system: U251 CNS
NCI-H522 lung = test system: NCI-H522 lung
HOP-92 NSCLC = test system: HOP-92 NSCLC
CAKI-1 renal = test system: CAKI-1 renal
DMS 273 small cell lung = test system: DMS 273 small cell lung
NCI-H460 lung = test system: NCI-H460 lung
MOLT-4 leukemia = test system: MOLT-4 leukemia
SNB-75 CNS = test system: SNB-75 CNS
XF 498 CNS = test system: XF 498 CNS
HT29 colon = test system: HT29 colon
SNB-78 CNS = test system: SNB-78 CNS
TK-10 renal = test system: TK-10 renal
DMS 114 small cell lung = test system: DMS 114 small cell lung
RXF-631 renal = test system: RXF-631 renal
LXFL 529 NSCLC = test system: LXFL 529 NSCLC
MALME-3M melanoma = test system: MALME-3M melanoma
A498 renal = test system: A498 renal
HOP-18 NSCLC = test system: HOP-18 NSCLC
UACC-62 melanoma = test system: UACC-62 melanoma
SN12C renal = test system: SN12C renal
M14 melanoma = test system: M14 melanoma
COLO 205 colon = test system: COLO 205 colon
SK-MEL-5 melanoma = test system: SK-MEL-5 melanoma
OVCAR-3 ovarian = test system: OVCAR-3 ovarian
LOX IMVI melanoma = test system: LOX IMVI melanoma
IGROV1 ovarian = test system: IGROV1 ovarian
ACHN renal = test system: ACHN renal
SF-268 CNS = test system: SF-268 CNS
SW-620 colon = test system: SW-620 colon
M19-MEL melanoma = test system: M19-MEL melanoma
SK-MEL-2 melanoma = test system: SK-MEL-2 melanoma
SK-MEL-28 melanoma = test system: SK-MEL-28 melanoma
NCI-H23 lung = test system: NCI-H23 lung
HCT-15 colon = test system: HCT-15 colon
DLD-1 colon = test system: DLD-1 colon
UO-31 renal = test system: UO-31 renal
EKVX NSCLC = test system: EKVX NSCLC
SF-295 CNS = test system: SF-295 CNS
KM20L2 colon = test system: KM20L2 colon
SK-OV-3 ovarian = test system: SK-OV-3 ovarian
SF-539 CNS = test system: SF-539 CNS
SNB-19 CNS = test system: SNB-19 CNS
RPMI-8226 leukemia = test system: RPMI-8226 leukemia
CCRF-CEM leukemia = test system: CCRF-CEM leukemia
HL-60(TB) leukemia = test system: HL-60(TB) leukemia
OVCAR-8 ovarian = test system: OVCAR-8 ovarian
HCC-2998 colon = test system: HCC-2998 colon
HOP-62 NSCLC = test system: HOP-62 NSCLC
UACC-257 melanoma = test system: UACC-257 melanoma
KM12 colon = test system: KM12 colon
786-0 renal = test system: 786-0 renal
OVCAR-5 ovarian = test system: OVCAR-5 ovarian
HCT-116 colon = test system: HCT-116 colon
OVCAR-4 ovarian = test system: OVCAR-4 ovarian
A549 NSCLC = test system: A549 NSCLC
RXF 393 renal = test system: RXF 393 renal
SR leukemia = test system: SR leukemia

c1ccc2c(c1)nc1n2CSC1
TGI (K-562 leukemia): > 100 µM
TGI (NCI-H226 lung): > 100 µM
TGI (U251 CNS): > 100 µM
TGI (NCI-H522 lung): > 100 µM
TGI (HOP-92 NSCLC): > 100 µM
TGI (CAKI-1 renal): > 100 µM
TGI (DMS 273 small cell lung): > 100 µM
TGI (NCI-H460 lung): > 100 µM
TGI (MOLT-4 leukemia): > 100 µM
TGI (SNB-75 CNS): > 100 µM
TGI (XF 498 CNS): > 100 µM
TGI (HT29 colon): > 100 µM
TGI (SNB-78 CNS): > 100 µM
TGI (TK-10 renal): > 100 µM
TGI (DMS 114 small cell lung): > 100 µM
TGI (RXF-631 renal): > 100 µM
TGI (LXFL 529 NSCLC): > 100 µM
TGI (MALME-3M melanoma): > 100 µM
TGI (A498 renal): > 100 µM
TGI (HOP-18 NSCLC): > 100 µM
TGI (UACC-62 melanoma): > 100 µM
TGI (SN12C renal): > 100 µM
TGI (M14 melanoma): > 100 µM
TGI (COLO 205 colon): > 100 µM
TGI (SK-MEL-5 melanoma): > 100 µM
TGI (OVCAR-3 ovarian): > 100 µM
TGI (LOX IMVI melanoma): > 100 µM
TGI (IGROV1 ovarian): > 100 µM
TGI (ACHN renal): > 100 µM
TGI (SF-268 CNS): > 100 µM
TGI (SW-620 colon): > 100 µM
TGI (M19-MEL melanoma): > 100 µM
TGI (SK-MEL-2 melanoma): > 100 µM
TGI (SK-MEL-28 melanoma): > 100 µM
TGI (NCI-H23 lung): > 100 µM
TGI (HCT-15 colon): > 100 µM
TGI (DLD-1 colon): > 100 µM
TGI (UO-31 renal): > 100 µM
TGI (EKVX NSCLC): > 100 µM
TGI (SF-295 CNS): > 100 µM
TGI (KM20L2 colon): > 100 µM
TGI (SK-OV-3 ovarian): > 100 µM
TGI (SF-539 CNS): > 100 µM
TGI (SNB-19 CNS): > 100 µM
TGI (RPMI-8226 leukemia): > 100 µM
TGI (CCRF-CEM leukemia): > 100 µM
TGI (HL-60(TB) leukemia): > 100 µM
TGI (OVCAR-8 ovarian): > 100 µM

O=c1c2cc(Br)cc(Br)c2[nH]c(=S)n1-c1ccccc1
TGI (K-562 leukemia): > 100 µM
TGI (NCI-H226 lung): > 100 µM
TGI (U251 CNS): > 100 µM
TGI (HOP-92 NSCLC): > 100 µM
TGI (CAKI-1 renal): > 100 µM
TGI (DMS 273 small cell lung): > 100 µM
TGI (NCI-H460 lung): > 100 µM
TGI (HCC-2998 colon): > 100 µM
TGI (HOP-62 NSCLC): > 100 µM
TGI (SNB-75 CNS): > 100 µM
TGI (XF 498 CNS): 78.9 µM
TGI (HT29 colon): > 100 µM
TGI (SNB-78 CNS): > 100 µM
TGI (TK-10 renal): > 100 µM
TGI (UACC-257 melanoma): > 100 µM
TGI (DMS 114 small cell lung): > 100 µM
TGI (RXF-631 renal): > 100 µM
TGI (MALME-3M melanoma): > 100 µM
TGI (A498 renal): > 100 µM
TGI (HOP-18 NSCLC): > 100 µM
TGI (UACC-62 melanoma): > 100 µM
TGI (SN12C renal): > 100 µM
TGI (KM12 colon): > 100 µM
TGI (M14 melanoma): > 100 µM
TGI (COLO 205 colon): > 100 µM
TGI (786-0 renal): > 100 µM
TGI (SK-MEL-5 melanoma): > 100 µM
TGI (OVCAR-3 ovarian): > 100 µM
TGI (LOX IMVI melanoma): > 100 µM
TGI (IGROV1 ovarian): > 100 µM
TGI (ACHN renal): > 100 µM
TGI (SF-268 CNS): > 100 µM
TGI (SW-620 colon): > 100 µM
TGI (M19-MEL melanoma): > 100 µM
TGI (SK-MEL-2 melanoma): > 100 µM
TGI (OVCAR-5 ovarian): > 100 µM
TGI (SK-MEL-28 melanoma): > 100 µM
TGI (NCI-H23 lung): > 100 µM
TGI (HCT-116 colon): > 100 µM
TGI (HCT-15 colon): > 100 µM
TGI (DLD-1 colon): > 100 µM
TGI (UO-31 renal): > 100 µM
TGI (EKVX NSCLC): > 100 µM
TGI (SF-295 CNS): > 100 µM
TGI (KM20L2 colon): > 100 µM
TGI (SK-OV-3 ovarian): > 100 µM
TGI (SF-539 CNS): > 100 µM
TGI (OVCAR-4 ovarian): > 100 µM
TGI (SNB-19 CNS): > 100 µM
TGI (RPMI-8226 leukemia): > 100 µM
TGI (CCRF-CEM leukemia): > 100 µM
TGI (OVCAR-8 ovarian): > 100 µM
TGI (A549 NSCLC): > 100 µM

CCCCN(CCCC)CCCCNc1c(C)cnc2cc(Cl)ccc12
TGI (K-562 leukemia): 43.3 µM
TGI (NCI-H226 lung): 43.4 µM
TGI (U251 CNS): > 100 µM
TGI (NCI-H522 lung): 35.6 µM
TGI (HOP-92 NSCLC): 36.2 µM
TGI (NCI-H460 lung): > 100 µM
TGI (MOLT-4 leukemia): > 100 µM
TGI (HCC-2998 colon): 29.4 µM
TGI (HOP-62 NSCLC): 68.2 µM
TGI (XF 498 CNS): 28.6 µM
TGI (HT29 colon): 57.8 µM
TGI (SNB-78 CNS): > 100 µM
TGI (TK-10 renal): 96 µM
TGI (UACC-257 melanoma): 32.5 µM
TGI (DMS 114 small cell lung): 56.9 µM
TGI (RXF-631 renal): 33.5 µM
TGI (LXFL 529 NSCLC): > 100 µM
TGI (MALME-3M melanoma): 36.1 µM
TGI (A498 renal): 86.5 µM
TGI (HOP-18 NSCLC): > 100 µM
TGI (SN12C renal): > 100 µM
TGI (KM12 colon): > 100 µM
TGI (M14 melanoma): 4.05 µM
TGI (COLO 205 colon): > 100 µM
TGI (786-0 renal): 32.1 µM
TGI (OVCAR-3 ovarian): > 100 µM
TGI (LOX IMVI melanoma): 29.7 µM
TGI (RXF 393 renal): 31 µM
TGI (ACHN renal): > 100 µM
TGI (SF-268 CNS): 85.3 µM
TGI (SW-620 colon): 56.8 µM
TGI (M19-MEL melanoma): > 100 µM
TGI (SK-MEL-2 melanoma): 39.9 µM
TGI (OVCAR-5 ovarian): 39.1 µM
TGI (SK-MEL-28 melanoma): 33.2 µM
TGI (NCI-H23 lung): > 100 µM
TGI (HCT-116 colon): 42 µM
TGI (HCT-15 colon): > 100 µM
TGI (UO-31 renal): 25.1 µM
TGI (EKVX NSCLC): 46.3 µM
TGI (SF-295 CNS): 50.8 µM
TGI (KM20L2 colon): 36.7 µM
TGI (SF-539 CNS): 27 µM
TGI (OVCAR-4 ovarian): > 100 µM
TGI (SNB-19 CNS): > 100 µM
TGI (CCRF-CEM leukemia): > 100 µM
TGI (OVCAR-8 ovarian): > 100 µM
TGI (A549 NSCLC): > 100 µM

COc1cc2cc[n+]3c4cc(OC)c(OC)cc4c(C)cc3c2cc1OC
TGI (K-562 leukemia): > 100 µM
TGI (NCI-H226 lung): > 100 µM
TGI (U251 CNS): > 100 µM
TGI (NCI-H522 lung): > 100 µM
TGI (HOP-92 NSCLC): > 100 µM
TGI (CAKI-1 renal): > 100 µM
TGI (DMS 273 small cell lung): > 100 µM
TGI (NCI-H460 lung): > 100 µM
TGI (MOLT-4 leukemia): > 100 µM
TGI (HCC-2998 colon): > 100 µM
TGI (SR leukemia): > 100 µM
TGI (HOP-62 NSCLC): > 100 µM
TGI (SNB-75 CNS): > 100 µM
TGI (XF 498 CNS): > 100 µM
TGI (HT29 colon): > 100 µM
TGI (SNB-78 CNS): > 100 µM
TGI (TK-10 renal): > 100 µM
TGI (UACC-257 melanoma): > 100 µM
TGI (DMS 114 small cell lung): > 100 µM
TGI (RXF-631 renal): > 100 µM
TGI (LXFL 529 NSCLC): > 100 µM
TGI (MALME-3M melanoma): > 100 µM
TGI (HOP-18 NSCLC): > 100 µM
TGI (UACC-62 melanoma): > 100 µM
TGI (SN12C renal): > 100 µM
TGI (KM12 colon): > 100 µM
TGI (M14 melanoma): > 100 µM
TGI (COLO 205 colon): > 100 µM
TGI (786-0 renal): > 100 µM
TGI (SK-MEL-5 melanoma): > 100 µM
TGI (OVCAR-3 ovarian): > 100 µM
TGI (LOX IMVI melanoma): > 100 µM
TGI (IGROV1 ovarian): > 100 µM
TGI (ACHN renal): > 100 µM
TGI (SW-620 colon): > 100 µM
TGI (M19-MEL melanoma): > 100 µM
TGI (SK-MEL-2 melanoma): > 100 µM
TGI (OVCAR-5 ovarian): > 100 µM
TGI (SK-MEL-28 melanoma): > 100 µM
TGI (NCI-H23 lung): > 100 µM
TGI (HCT-116 colon): > 100 µM
TGI (HCT-15 colon): > 100 µM
TGI (DLD-1 colon): > 100 µM
TGI (UO-31 renal): > 100 µM
TGI (EKVX NSCLC): > 100 µM
TGI (SF-295 CNS): > 100 µM
TGI (KM20L2 colon): > 100 µM
TGI (SK-OV-3 ovarian): > 100 µM
TGI (SF-539 CNS): > 100 µM
TGI (OVCAR-4 ovarian): > 100 µM
TGI (SNB-19 CNS): > 100 µM
TGI (RPMI-8226 leukemia): > 100 µM
TGI (CCRF-CEM leukemia): > 100 µM
TGI (HL-60(TB) leukemia): > 100 µM
TGI (OVCAR-8 ovarian): > 100 µM
TGI (A549 NSCLC): > 100 µM
